In paper PMC10584882 (Communications Biology, 2023):
Where “and” joins values, the source holds several entries; their conditions need not be identical. Equal entries are not always repeated.

What was measured:
SARS-CoV-2 M^pro = biological target: T1, SARS-CoV-2 M^pro (Severe acute respiratory syndrome coronavirus 2, UniProt P0DTD1); format: biochemical
T1 construct: Initially reported to target the viral main protease (M^pro); made in house
Experimental: In the enzyme inhibition assays, the initial velocities were calculated from the initial linear portions of their curves, assuming steady-state kinetics. IC50 and Ki values were calculated using GraphPad Prism software. Z-FR-AMC (CatK and CatV), Z-RR-AMC (CatB and CatL), and QS1 or Acetyl-VKLQ-AMC (M^pro) substrates were used to monitor reactions. These measurements were done in four independent duplicates or triplicates, respectively.

human CatK = biological target: T2, human CatK (Homo sapiens, UniProt P43235); assay: Cathepsin inhibition test, CatK; format: biochemical
T2 construct: made in house
T2 sequence (P43235 115-329): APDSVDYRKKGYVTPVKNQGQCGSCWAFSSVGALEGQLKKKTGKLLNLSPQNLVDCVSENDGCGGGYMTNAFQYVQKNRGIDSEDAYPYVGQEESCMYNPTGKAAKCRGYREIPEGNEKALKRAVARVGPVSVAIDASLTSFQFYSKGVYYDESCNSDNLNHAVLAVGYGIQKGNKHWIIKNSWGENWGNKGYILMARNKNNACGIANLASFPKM

CatL = biological target: T3, CatL (Homo sapiens, UniProt P07711); assay: Cathepsin inhibition test, CatL; format: biochemical; conditions: for Residual activity (Vi/V0): Fig. S3 panel b, single replicates
T3 construct: made in house

human CatV = biological target: T4, human CatV (Homo sapiens, UniProt O60911); assay: Cathepsin inhibition test, CatV; format: biochemical; conditions: Fig. S3 panel c, single replicates
T4 construct: made in house

SARS-CoV-2-GFP = assay: microbe, parasite or virus in culture; format: cell-based; conditions: Severe acute respiratory syndrome coronavirus 2, Vero C1008, mean with standard error, read-out: VERO E6 EC50
SARS-CoV-2 = assay: Viral loading determination via RT-qPCR in LC-HK2 cells; format: cell-based; conditions: LC-HK2, RT-qPCR
[1] = mean with standard deviation and 95% confidence interval, pH 5.5, 37 °C
[2] = inhibitor 0.105 nM, 0.000105 µM
[3] = inhibitor 0.189 nM, 0.000189 µM
[4] = inhibitor 0.612 nM, 0.000612 µM
[5] = inhibitor 1.103 nM, 0.001103 µM
[6] = inhibitor 1.985 nM, 0.001985 µM

T3 sequence (P07711 114-333): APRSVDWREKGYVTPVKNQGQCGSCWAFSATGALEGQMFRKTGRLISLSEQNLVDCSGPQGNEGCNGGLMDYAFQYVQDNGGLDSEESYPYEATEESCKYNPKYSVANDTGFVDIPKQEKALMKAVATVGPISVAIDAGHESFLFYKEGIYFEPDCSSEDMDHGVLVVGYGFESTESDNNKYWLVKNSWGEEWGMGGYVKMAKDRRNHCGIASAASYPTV
T4 sequence (O60911 114-334): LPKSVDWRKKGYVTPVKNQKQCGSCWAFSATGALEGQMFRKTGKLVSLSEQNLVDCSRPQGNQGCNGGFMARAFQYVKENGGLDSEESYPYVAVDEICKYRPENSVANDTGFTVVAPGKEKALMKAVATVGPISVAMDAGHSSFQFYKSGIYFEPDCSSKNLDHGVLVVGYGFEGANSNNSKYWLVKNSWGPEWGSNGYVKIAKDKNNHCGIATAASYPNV

In the case of `CCCC[C@@H](C=O)NC(=O)[C@H](CC(C)C)NC(=O)OCc1ccccc1` [Calpeptin, reference compound], the “range of M^pro inhibition (in words)” value (SARS-CoV-2 M^pro) is reported as “micromolar range”, the “Residual activity (Vi/V0)” value (human CatK; Fig. S3 panel a, inhibitor 0.010 nM, single replicates, 10 pM) is reported as 0.8228 and 0.7849 and 0.8924 and the remaining activity at 10 pM (human CatK; Fig. S3 panel a, inhibitor 0.010 nM, single replicates, read-out: Residual activity (Vi/V0)) is reported as 79.2%. For the same molecule, the “Residual activity (Vi/V0)” value (human CatK; Fig. S3 panel a, inhibitor 0.018 nM, single replicates, 18 pM) was 0.692 and 0.7935 and 0.8793 and 0.9792, the “Residual activity (Vi/V0)” value (human CatK; Fig. S3 panel a, inhibitor 0.032 nM, single replicates, 32 pM) was 0.6266 and 0.7672 and 0.8012 and 0.8701 and the “Residual activity (Vi/V0)” value (human CatK; Fig. S3 panel a, inhibitor 0.058 nM, single replicates, 58 pM) was 0.6214 and 0.5994 and 0.7911 and 0.9302. For the same molecule, the “Residual activity (Vi/V0)” value (human CatK; Fig. S3 panel a, inhibitor 0.105 nM, single replicates, 0.000105 µM) was 0.4801 and 0.5677 and 0.7764, the “Residual activity (Vi/V0)” value (human CatK; Fig. S3 panel a, inhibitor 0.189 nM, single replicates, 0.000189 µM) was 0.4602 and 0.558 and 0.5219 and 0.7569 and the “Residual activity (Vi/V0)” value (human CatK; Fig. S3 panel a, inhibitor 0.340 nM, single replicates, 0.00034 µM) was 0.3878 and 0.4931 and 0.523. The remaining activity at 0.00034 µM (human CatK; Fig. S3 panel a, inhibitor 0.340 nM, single replicates, read-out: Residual activity (Vi/V0)) was 34.5%, the “Residual activity (Vi/V0)” value (human CatK; Fig. S3 panel a, inhibitor 0.612 nM, single replicates, 0.000612 µM) was 0.4226 and 0.3636 and 0.4242 and the remaining activity at 0.000612 µM (human CatK; Fig. S3 panel a, inhibitor 0.612 nM, single replicates, read-out: Residual activity (Vi/V0)) was 40.6%. For the same molecule, the “Residual activity (Vi/V0)” value (human CatK; Fig. S3 panel a, inhibitor 1.103 nM, single replicates, 0.001103 µM) was 0.2715 and 0.287 and 0.3208, the remaining activity at 0.001103 µM (human CatK; Fig. S3 panel a, inhibitor 1.103 nM, single replicates, read-out: Residual activity (Vi/V0)) was 28.1% and the “Residual activity (Vi/V0)” value (human CatK; Fig. S3 panel a, inhibitor 1.985 nM, single replicates, 0.001985 µM) was 0.3296 and 0.262 and 0.2126. The remaining activity at 0.001985 µM (human CatK; Fig. S3 panel a, inhibitor 1.985 nM, single replicates, read-out: Residual activity (Vi/V0)) was 22.7%, the “Residual activity (Vi/V0)” value (human CatK; Fig. S3 panel a, inhibitor 3.572 nM, single replicates, 0.003572 µM) was 0.1196 and 0.134 and 0.13 and the remaining activity at 0.003572 µM (human CatK; Fig. S3 panel a, inhibitor 3.572 nM, single replicates, read-out: Residual activity (Vi/V0)) was 12.2%. The “Residual activity (Vi/V0)” value (human CatK; Fig. S3 panel a, inhibitor 6.430 nM, single replicates, 0.00643 µM) was 0.07914 and 0.03985 and 0.09073 and 0.08937, the “Residual activity (Vi/V0)” value (human CatK; Fig. S3 panel a, inhibitor 11.547 nM, single replicates, 0.011547 µM) was 0.02749 and 0.03914 and 0.04269 and the remaining activity at 0.011547 µM (human CatK; Fig. S3 panel a, inhibitor 11.547 nM, single replicates, read-out: Residual activity (Vi/V0)) was 3.75%. For the same molecule, the “Residual activity (Vi/V0)” value (human CatK; Fig. S3 panel a, inhibitor 20.833 nM, single replicates, 0.020833 µM) was 0.006913 and 0.01907 and 0.01563, the “Residual activity (Vi/V0)” value (human CatK; Fig. S3 panel a, inhibitor 37.500 nM, single replicates, 0.0375 µM) was -0.03871 and -0.04863 and 0.01233 and 0.01242 and the Ki (human CatK; [1]) was 61 pM. The “Residual activity (Vi/V0)” value (CatL; inhibitor 0.010 nM, 10 pM) was 1.181 and 1.134 and 0.9277 and 1.059 and 0.8624 and 0.9348 and 0.9777 and 1.017 and 0.9832 and 0.6727, the “Residual activity (Vi/V0)” value (CatL; inhibitor 0.018 nM, 18 pM) was 1.262 and 1.015 and 0.8756 and 0.9203 and 0.9271 and 0.9762 and 0.9712 and 1.058 and 1.013 and 1.061 and the “Residual activity (Vi/V0)” value (CatL; inhibitor 0.032 nM, 32 pM) was 1.274 and 1.3352 and 0.8294 and 0.9418 and 0.8372 and 0.9412 and 1.0025 and 0.9769 and 1.076 and 1.186. For the same molecule, the “Residual activity (Vi/V0)” value (CatL; inhibitor 0.058 nM, 58 pM) was 1.241 and 1.238 and 0.7232 and 0.8381 and 0.7506 and 0.9356 and 0.9293 and 0.9501 and 1.073 and 1.146, the “Residual activity (Vi/V0)” value (CatL; [2]) was 1.299 and 0.9537 and 0.6352 and 0.6893 and 0.6342 and 0.9772 and 0.9319 and 0.9262 and 1.17 and 1.244 and the “Residual activity (Vi/V0)” value (CatL; [3]) was 1.276 and 0.7939 and 0.4796 and 0.5261 and 0.4831 and 0.8363 and 0.8485 and 0.8665 and 1.045 and 0.9948. For the same molecule, the “Residual activity (Vi/V0)” value (CatL; inhibitor 0.340 nM, 0.00034 µM) was 1.076 and 0.6362 and 0.1912 and 0.3311 and 0.2442 and 0.7013 and 0.6724 and 0.6039 and 0.9136 and 0.9341, the “Residual activity (Vi/V0)” value (CatL; [4]) was 0.7699 and 0.3953 and 0.2966 and 0.328 and 0.2718 and 0.8608 and 0.8769 and 0.888 and 0.6121 and 0.7229 and the “Residual activity (Vi/V0)” value (CatL; [5]) was 0.6194 and 0.292 and 0.1922 and 0.2117 and 0.1777 and 0.7372 and 0.725 and 0.6702 and 0.5009 and 0.6045. The “Residual activity (Vi/V0)” value (CatL; [6]) was 0.4333 and 0.2071 and 0.1127 and 0.1262 and 0.1102 and 0.4283 and 0.4219 and 0.4519 and 0.4308 and 0.4332, the Ki (CatL; [1]) was 131 pM and the “Residual activity (Vi/V0)” value (human CatV; inhibitor 0.010 nM, 10 pM) was 0.7492 and 0.8662 and 0.9665 and 0.9783 and 1.034 and 0.8959 and 1.049 and 1.043. The “Residual activity (Vi/V0)” value (human CatV; inhibitor 0.018 nM, 18 pM) was 1.426 and 1.071 and 0.8111 and 0.946 and 1.016 and 0.7983 and 1.052 and 1.107, the “Residual activity (Vi/V0)” value (human CatV; inhibitor 0.032 nM, 32 pM) was 0.6155 and 0.7103 and 0.8989 and 0.8852 and 0.9741 and 0.7786 and 1.073 and 1.106 and the “Residual activity (Vi/V0)” value (human CatV; inhibitor 0.058 nM, 58 pM) was 0.4678 and 0.5573 and 0.8821 and 0.907 and 0.9499 and 0.7317 and 1.135 and 1.04. The “Residual activity (Vi/V0)” value (human CatV; [2]) was 0.3395 and 0.4697 and 0.9391 and 1.0131 and 0.8776 and 0.5515 and 1.047 and 0.9299, the “Residual activity (Vi/V0)” value (human CatV; [3]) was 0.2218 and 0.3638 and 0.7852 and 0.7629 and 0.7844 and 0.3361 and 0.9055 and 0.7253 and the “Residual activity (Vi/V0)” value (human CatV; inhibitor 0.340 nM, 0.00034 µM) was 0.127 and 0.1861 and 0.5926 and 0.6199 and 0.6546 and 0.1805 and 0.6841 and 0.4951. The “Residual activity (Vi/V0)” value (human CatV; [4]) was 0.08315 and 0.0899 and 0.6171 and 0.6648 and 0.6032 and 0.1116 and 0.3127 and 0.292, the “Residual activity (Vi/V0)” value (human CatV; [5]) was 0.07258 and 0.065 and 0.4015 and 0.4879 and 0.4441 and 0.08067 and 0.1763 and 0.1568 and the “Residual activity (Vi/V0)” value (human CatV; [6]) was 0.02995 and 0.03856 and 0.2299 and 0.2925 and 0.2801 and 0.03165 and 0.06168 and 0.07508. The “Residual activity (Vi/V0)” value (human CatV; inhibitor 3.572 nM, 0.003572 µM) was 0.007933 and 0.009299 and 0.124 and 0.1265 and 0.09125 and 0.0154 and 0.02738 and 0.02841, the “Residual activity (Vi/V0)” value (human CatV; inhibitor 6.430 nM, 0.00643 µM) was 0.0062 and 0.004492 and 0.03048 and 0.04147 and 0.02591 and 0.007404 and 0.008251 and 0.01699 and the “Residual activity (Vi/V0)” value (human CatV; inhibitor 11.547 nM, 0.011547 µM) was 0.001379 and -0.0006257 and 0.001045 and 0.01451. For the same molecule, the EC50 (SARS-CoV-2-GFP) was 183000 ± 65000 pM, the “Viral titer (% control)” value (SARS-CoV-2; 0.0006 μM) was 100 % control and the “Viral titer (% control)” value (SARS-CoV-2; 0.0012 μM) was 100 % control. The “Viral titer (% control)” value (SARS-CoV-2; 0.0024 μM) was 100 % control, the “Viral titer (% control)” value (SARS-CoV-2; 0.0049 μM) was 100 % control and the “Viral titer (% control)” value (SARS-CoV-2; 0.0098 μM) was 100 % control.
